This experiment deals with T1, ACE (purified by lung rabbit, EC 3.4.15.1) (Oryctolagus cuniculus, UniProt P12822).
T1 construct: purchased SIGMA; host or cells: rabbit lung
T1 sequence (P12822 34-1310): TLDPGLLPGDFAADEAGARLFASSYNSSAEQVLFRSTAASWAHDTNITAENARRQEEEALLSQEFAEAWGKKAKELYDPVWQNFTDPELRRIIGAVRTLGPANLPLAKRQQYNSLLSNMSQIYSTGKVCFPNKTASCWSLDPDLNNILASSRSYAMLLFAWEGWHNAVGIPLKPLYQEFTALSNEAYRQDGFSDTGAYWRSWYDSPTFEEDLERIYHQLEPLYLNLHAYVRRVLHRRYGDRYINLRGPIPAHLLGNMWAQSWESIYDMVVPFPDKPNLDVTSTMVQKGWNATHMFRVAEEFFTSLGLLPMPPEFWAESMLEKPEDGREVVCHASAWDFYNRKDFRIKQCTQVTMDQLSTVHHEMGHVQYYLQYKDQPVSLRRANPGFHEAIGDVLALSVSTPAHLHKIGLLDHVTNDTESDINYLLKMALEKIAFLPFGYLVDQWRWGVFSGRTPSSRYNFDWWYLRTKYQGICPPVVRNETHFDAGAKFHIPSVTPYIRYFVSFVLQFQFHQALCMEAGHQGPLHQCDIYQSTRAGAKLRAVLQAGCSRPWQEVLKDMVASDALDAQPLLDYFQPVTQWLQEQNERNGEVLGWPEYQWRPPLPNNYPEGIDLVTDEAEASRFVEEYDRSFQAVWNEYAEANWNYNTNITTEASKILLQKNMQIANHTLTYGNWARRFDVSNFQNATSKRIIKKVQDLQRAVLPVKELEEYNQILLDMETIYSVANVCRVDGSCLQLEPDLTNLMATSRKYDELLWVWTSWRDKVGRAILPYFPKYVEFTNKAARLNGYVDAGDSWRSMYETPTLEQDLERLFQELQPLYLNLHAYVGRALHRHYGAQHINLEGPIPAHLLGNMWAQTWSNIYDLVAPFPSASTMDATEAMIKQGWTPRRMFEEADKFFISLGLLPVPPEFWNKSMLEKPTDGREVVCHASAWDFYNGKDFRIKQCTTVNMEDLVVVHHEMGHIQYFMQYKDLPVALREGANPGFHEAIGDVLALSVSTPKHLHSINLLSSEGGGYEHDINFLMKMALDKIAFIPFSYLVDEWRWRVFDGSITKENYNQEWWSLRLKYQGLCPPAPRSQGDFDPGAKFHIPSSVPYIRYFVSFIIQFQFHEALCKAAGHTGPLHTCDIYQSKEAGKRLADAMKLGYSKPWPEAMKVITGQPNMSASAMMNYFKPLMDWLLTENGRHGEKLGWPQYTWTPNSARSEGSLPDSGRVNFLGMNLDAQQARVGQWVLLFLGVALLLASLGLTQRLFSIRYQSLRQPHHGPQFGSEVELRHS
Description: In vitro ACE-inhibitory activity (FAPGG substrate, spectrophotometric). Format: biochemical. Particulars: 37° C.; FAPGG 0.8 mM. The procedure: b) ACE-inhibitory activity
The ACE-inhibitory activity was evaluated according to the method reported in the literature by B. Holmquist et al., in Analytical Biochemistry 95, 540-548 (1979).
[…] of ACE (250 mU/ml purified by lung rabbit, EC 3.4.15.1 SIGMA) were preincubated with 50 μl of the compound of formula I or of the comparison compound in thermostated cuvettes at 37° C.
The reaction was started by adding furylacryloylphenylalanylglycylglycine 0.8 mM (FAPGG-SIGMA).
Contemporaneously, by using a Beckman DU-50 spectrophotometer provided with a program for calculating delta A/minutes and regression coefficients of the enzyme kinetics curves, the absorbance at 340 nm was recorded in continuo for 5 minutes.
The percentage of the enzyme inhibition in the preparations treated with the compounds of formula I or with the comparative compounds with respect to the untreated preparations was expressed as IC50 (nM) value.

Usually IC50 stands for the point on the concentration scale where inhibition reaches its midpoint. Low readings indicate inhibition by little substance, high ones a need for much substance.

The structures appear in SMILES notation.

For the compound `O=C(N[C@@H](Cc1ccc(-c2ccccc2)cc1)C(=O)O)C(CS)Cc1ccccc1` (stereo partly shown) [compound 41], the IC50 stood at 5 nM. That is a single-digit nanomolar value.

The values are drawn from patent publication US5760241A, “Thiol derivatives with metallopeptidase inhibitory activity” (priority 1996, dated 1998).
